Measured values taken from PubChem BioAssay (NCI).
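Grown in 96-well plates, cells were treated for 48 hours with each compound at five concentrations. Insufficient inhibition: endpoint recorded as highest concentration tested. GI50 is the concentration that inhibits growth by half. TGI marks complete inhibition of growth.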

How the values were obtained:
Assay in all cases: growth of human tumour cells (NCI), 48 h
[1] = test system: COLO 205 colon
[2] = test system: UACC-257 melanoma
[3] = test system: MOLT-4 leukemia
[4] = test system: 786-0 renal
[5] = test system: EKVX NSCLC
[6] = test system: SF-539 CNS
[7] = test system: K-562 leukemia
[8] = test system: CAKI-1 renal
[9] = test system: NCI-H522 lung
[10] = test system: IGROV1 ovarian

Structure (SMILES)	TGI [1] [µM]	TGI [2] [µM]	TGI [3] [µM]	TGI [4] [µM]	TGI [5] [µM]	TGI [6] [µM]	TGI [7] [µM]	TGI [8] [µM]	TGI [9] [µM]	TGI [10] [µM]	GI50 [8] [µM]	GI50 [1] [µM]	GI50 [2] [µM]	GI50 [3] [µM]	GI50 [4] [µM]	GI50 [5] [µM]	GI50 [6] [µM]	GI50 [10] [µM]	GI50 [7] [µM]	GI50 [9] [µM]
O=[N+]([O-])c1ccc(C(c2c[nH]c3ccccc23)c2c[nH]c3ccccc23)cc1	21.8	9.79	40.9	35.2	48.2	30.6	48													
Nc1ccn(CCOC(=O)c2ccccc2)c(=O)n1	> 100	> 100		> 100	> 100	> 100	> 100	> 100	> 100	> 100										
O=C(NNc1nc(Cl)nc(N2CCN(C(c3ccccc3)c3ccccc3)CC2)n1)c1ccccc1	4.64	4.67	5.13	4.84	4.29	3.15	> 100	3.1		3.06	1.68	2.04	2.06	1.66	2.21	1.99	1.73	1.66	0.734	
CCC[CH2][Sn-]([CH2]CCC)([CH2]CCC)[O]c1cc(Cl)c(Cl)cc1Cl	0.4		0.545	0.318	0.9	0.437	0.411			0.379		0.191		0.167	0.163	0.216	0.267	0.162	0.165	
O=C1C(=O)N(C(=O)c2ccc(Cl)c(Cl)c2)c2ccccc21	> 100		> 100	> 100	> 100	> 100	> 100			> 100										
N#CCC(=O)Nc1cccc(C(F)(F)F)c1	> 100	> 100	> 100	> 100	> 100	> 100		> 100	> 100	> 100										
COC(=O)C1CC2(CC3=C1CCCC3)OCCO2 (configuration not stated)	> 100	> 100		> 100	> 100	> 100	> 100	> 100	> 100	> 100										
COc1cc(OC)c([C@@H]2OC(=O)C3C2C(=O)O[C@H]3c2cc(OC)c(OC)cc2OC)cc1OC (some centres not stated)	> 100	> 100	> 100	> 100	> 100	> 100	> 100	> 100		> 10										
CNC(P(=O)([O-])[O-])P(=O)([O-])[O-].N.N.[Pt+2]	> 100			> 100	> 100	> 100		> 100	> 100	> 100	> 100	> 100			> 100	> 100	> 100	> 100		> 100
CC(=O)Nc1ccc2c(c1)c(C1=C(c3cn(C)c4ccccc34)C(=O)NC1=O)cn2C	> 25	> 25	13.8	> 25		1.97	> 25	24.3	> 6.59	> 25	1.07	1.3	> 21.6	2.4	1.28		0.671	16.4	0.926	0.702
N=C1C(c2nc(-c3ccc(Br)cc3)cs2)=C(O)CN1Cc1cccnc1	38.4	> 100	42.7	34.3	> 100	84.8	> 100	> 100			35	11.9	27.8	4.39	15.3	56.6	15.5		8.17	
O=c1c2ccccc2[nH]c(=S)n1-c1ccc(Br)cc1	> 100	> 100	> 100	> 100	> 100	> 100	> 100		> 100	> 100										
COc1ccc(Cl)cc1Nc1nc(C(F)(F)F)ccc1C(=O)N/N=C/c1c(Cl)cccc1Cl		> 100	10.7	> 100		> 100	32.5	> 100	> 100		9.74		> 100	2.36	8.49		17.9		3.34	13.3
Cc1cc2c(c(C#N)c1C)NC(=O)CCC2=O	> 100	> 100	> 100	> 100	> 100	> 100	> 100	> 100		> 100										
